Experimental data reported in patent US20050209278A1, “Piperidinyl- and piperazinyl-sulfonylmethyl hydroxamic acids and their use as protease inhibitors” (priority 2002, published 2005).
“And” between values parts separate entries of the source, which are not always exact repeats. Identical values can stand only once.

Assays:
MMP-2 = target: T1, MMP-2 (Homo sapiens, UniProt P08253); experiment: In vitro MMP inhibition, Ki determination (fluorogenic substrate II); format: biochemical; conditions: value outside parentheses; read-out: MMP-2 Ki
T1 construct: made in house; host or cells: MMP-2-transfected p2AHT2 cells
T1 sequence (P08253 110-660): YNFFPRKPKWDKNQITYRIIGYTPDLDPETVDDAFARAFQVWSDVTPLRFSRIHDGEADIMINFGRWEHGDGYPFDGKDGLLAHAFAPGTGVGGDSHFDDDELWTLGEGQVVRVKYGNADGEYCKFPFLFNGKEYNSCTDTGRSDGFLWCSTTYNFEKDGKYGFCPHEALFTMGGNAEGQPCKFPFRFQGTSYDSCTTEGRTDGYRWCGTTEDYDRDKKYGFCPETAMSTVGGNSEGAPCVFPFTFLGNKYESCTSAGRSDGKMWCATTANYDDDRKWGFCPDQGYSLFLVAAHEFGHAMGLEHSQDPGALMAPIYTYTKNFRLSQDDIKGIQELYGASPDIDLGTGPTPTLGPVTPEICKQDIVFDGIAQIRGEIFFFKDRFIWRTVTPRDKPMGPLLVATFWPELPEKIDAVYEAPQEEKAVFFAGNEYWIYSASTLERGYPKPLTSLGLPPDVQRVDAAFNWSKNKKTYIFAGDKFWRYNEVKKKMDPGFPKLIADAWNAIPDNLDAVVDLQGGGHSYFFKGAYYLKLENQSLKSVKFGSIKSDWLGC

MMP-13 = target: T2, MMP-13 (Homo sapiens, UniProt P45452); experiment: as above; format: biochemical; conditions: value outside parentheses; read-out: MMP-13 Ki
T2 construct: made in house; host or cells: baculovirus / insect cells
How it was run: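 Room-temperature, 1 h incubation of APMA-activated recombinant human MMP-13 with 4 μM quenched substrate II (cleaved at Gly-Leu) in pH 7.5 Tris/NaCl/CaCl2 buffer. Inhibition appears as a slowed rise in 330/420 nm fluorescence. Single low enzyme and substrate levels were used for Ki.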

Structure (SMILES) | Ki (MMP-2) | Ki (MMP-13)
O=C(NO)C1(S(=O)(=O)N2CCN(c3ccc(-c4ccccc4)cn3)CC2)CCOCC1 [Example 372] | 0.451 nM and 0.479 nM | 0.485 nM and 0.654 nM
O=C(NO)C1(S(=O)(=O)N2CCC(COCc3ccccc3)CC2)CCOCC1 [Example 373] | 6.12 nM | 3.37 nM
CCC=C1CCN(S(=O)(=O)C2(C(=O)NO)CCOCC2)CC1 [Example 374] | 18.6 nM | 5.72 nM
O=C(NO)C1(S(=O)(=O)N2CCC(COCC(F)(F)C(F)(F)C(F)(F)F)CC2)CCOCC1 [Example 377] | 37.5 nM | 87.5 nM
O=C(NO)C1(S(=O)(=O)N2CCC(COCC(F)(F)C(F)(F)C(F)(F)C(F)F)CC2)CCOCC1 [Example 378] | 24.8 nM | 48.4 nM
CCCCc1ccc(-c2cnc(N3CCN(S(=O)(=O)C4(C(=O)NO)CCOCC4)CC3)s2)cc1 [Example 379] | 0.14 nM | 0.167 nM
O=C(NO)C1(S(=O)(=O)N2CCN(c3ncc(-c4cccnc4)s3)CC2)CCOCC1 [Example 382] | 0.68 nM | 0.647 nM
NC(=O)c1ccccc1-c1cnc(N2CCN(S(=O)(=O)C3(C(=O)NO)CCOCC3)CC2)s1 [Example 383] | 1230 nM | 104 nM
O=C(NO)C1(S(=O)(=O)N2CCN(c3ccc(CCCC(F)(F)F)cc3F)CC2)CCOCC1 [Example 386] | 4.88 nM | 2.29 nM
O=C(NO)C1(S(=O)(=O)N2CCN(c3ncc(-c4ccccn4)s3)CC2)CCOCC1 [Example 387] | 6.71 nM | 31 nM
CCCCc1ccc(C2CCN(S(=O)(=O)C3(C(=O)NO)CCNCC3)CC2)nc1 [Example 388] | 11.2 nM | 15.1 nM
O=C(NO)C1(S(=O)(=O)N2CCN(c3ccc(CCCC(F)(F)F)c(F)c3)CC2)CCOCC1 [Example 389] | 0.38 nM | 0.47 nM
O=C(NO)C1(S(=O)(=O)N2CCC(c3ccc(-c4ccccc4)cn3)CC2)CCOCC1 [Example 392] | 4.02 nM | 4.23 nM
O=C(NO)C1(S(=O)(=O)N2CCC(c3ccc(-c4ccc(C(F)(F)F)cc4)cn3)CC2)CCOCC1 [Example 395] | 7.17 nM | 0.89 nM
CCCCc1ccc(C2CCN(S(=O)(=O)C3(C(=O)NO)CCN(CC)CC3)CC2)nc1 [Example 396] | 2.32 nM | 2.19 nM

Now from value to compound:

Ki (MMP-2) | Ki (MMP-13) | Structure (SMILES)
44.1 nM | 509 nM | O=C(NO)C1(S(=O)(=O)N2CCC(COCC(F)(F)C(F)F)CC2)CCOCC1 [Example 375]
27.1 nM | 31.2 nM | O=C(NO)C1(S(=O)(=O)N2CCC(COCC(F)(F)C(F)(F)F)CC2)CCOCC1 [Example 376]
1.39 nM | 0.651 nM | CCCCCc1ccc(-c2cnc(N3CCN(S(=O)(=O)C4(C(=O)NO)CCOCC4)CC3)s2)cc1 [Example 380]
0.209 nM | 0.074 nM | CCc1ccc(-c2cnc(N3CCN(S(=O)(=O)C4(C(=O)NO)CCOCC4)CC3)s2)cc1 [Example 381]
0.185 nM | 0.272 nM | N#Cc1cccc(-c2cnc(N3CCN(S(=O)(=O)C4(C(=O)NO)CCOCC4)CC3)s2)c1 [Example 384]
0.573 nM | 0.378 nM | O=C(NO)C1(S(=O)(=O)N2CCC(c3ccc(OCC(F)(F)C(F)F)cc3)CC2)CCN(CCN2CCOCC2)CC1 [Example 385]
12.3 nM | 6.72 nM | O=C(NO)C1(S(=O)(=O)N2CCC(c3ccc(-c4cccnc4)cn3)CC2)CCOCC1 [Example 390]
1.8 nM | 1.73 nM | O=C(NO)C1(S(=O)(=O)N2CCC(c3ccc(-c4cccs4)cn3)CC2)CCOCC1 [Example 394]
